In US10278957B2, “Opioid agonist peptides and uses thereof” (Protagonist Therapeutics, Inc., priority 2017, dated 2019):
Square brackets hold non-standard residues; d marks the D form. Peptide text beside a SMILES is read from it. Phe(2,6-Me2,4-CONH2) = Cc1cc(C(N)=O)cc(C)c1C[C@H](N)C(=O)O; β3hF = N[C@H](CC(=O)O)Cc1ccccc1; Sar = CNCC(=O)O

Key:
[1] = target: T1, δ-opioid receptor (DOR) (Homo sapiens, UniProt P41143); experiment: DOR agonist cAMP assay (HitHunter cAMP, forskolin-stimulated); format: cell-based
T1 construct: host or cells: cAMP Hunter CHO-K1 OPRD1 Gαi cell line
Description: (§1) The HitHunter® cAMP chemiluminescent assay kit (DiscoveRx, Cat# 90-0075 SM25) was used to detect cAMP production in cAMP Hunter™ Gαi cell lines over expressing either Human-ORPM1 (Discoverx, Catalog# 95-0107C2) or Human-ORPD1 (DiscoveRx, Catalog# 95-0108C2). Opioid agonist binding to the Gαi receptors inhibits the intracellular cAMP accumulation induced by forskolin, which activates adenylate cyclase and increases intracellular levels of cAMP.
(§2) Cells were cultured in media consisting of Ham's F-12 Nutrient Mix (Life Technologies, Catalog#31765035), 10% FBS (Life Technologies, Catalog# 16140-071), 4 mM GlutaMAX (Life Technologies, Catalog#35050-061), […] (Life Technologies), 100 ug/ml of Penn-Strep (Life Technologies) and 0.5 mg/ml Geneticin (Life Technologies, Catalog# 10131-027). The cultures were maintained at 37° C. under 5% CO2.
(§3) In preparation for cAMP assay, the cells were seeded at a density of 300,000 cells/ml in 100 ul of media/well in 96-well microplate. Wells that were designated for cAMP standards were left empty.
(§4) Opioid agonist serial dilutions were prepared in separate dilution plate (11-point series of 3× (3-fold) dilution) in Cell Assay buffer, including 3× forskolin for Gαi target. For Hunter CHO-K1 OPRM1 or CHO-K1 OPRD1 Gαi Cell Lines, the final forskolin concentration was 20 uM.
(§5) 15 ul of each 3× opioid agonist serial dilution was added in the presence of forskolin in duplicate to the designated wells. The final concentration of each dilution was at 3× of the final screening concentration. The assay plate was incubated for 30 min, at 37° C. under 5% CO2.
(§6) Cellular cAMP concentrations were measured using the HitHunter cAMP Assay kit following the manufacturer's protocol. HitHunter cAMP assay is a gain-of-signal competitive immunoassay based on Enzyme Fragment Complementation (EFC) technology. The kit uses β-galactosidase (β-gal) enzyme split into Enzyme Donor (ED) and Enzyme Acceptor (EA). The cellular cAMP and ED-labelled cAMP compete for anti-cAMP antibody. […] When cellular cAMP level is high, it competes for the anti-cAMP antibody, thereby releasing ED-cAMP to complement with EA to produce a luminescent signal. The amount of signal is directly proportional to the amount of cAMP in cells and can be quantified using cAMP standards. The assay plates were read using a PerkinElmer Envision instrument to detect the chemiluminescence signal in each well (luminescence reader at 0.1 to 1 second/well). Data analysis was performed using Graphpad Prism 7.EC50 was calculated by nonlinear regression, using the four-parameter hill equation.

[2] = target: T2, μ-opioid receptor (MOR) (Homo sapiens, UniProt P35372); experiment: MOR agonist cAMP assay (HitHunter cAMP, forskolin-stimulated); format: cell-based
T2 construct: host or cells: cAMP Hunter CHO-K1 OPRM1 Gαi cell line
Description: as §1, §2, §3, §4, §5, §6

T2 sequence (P35372 whole entry): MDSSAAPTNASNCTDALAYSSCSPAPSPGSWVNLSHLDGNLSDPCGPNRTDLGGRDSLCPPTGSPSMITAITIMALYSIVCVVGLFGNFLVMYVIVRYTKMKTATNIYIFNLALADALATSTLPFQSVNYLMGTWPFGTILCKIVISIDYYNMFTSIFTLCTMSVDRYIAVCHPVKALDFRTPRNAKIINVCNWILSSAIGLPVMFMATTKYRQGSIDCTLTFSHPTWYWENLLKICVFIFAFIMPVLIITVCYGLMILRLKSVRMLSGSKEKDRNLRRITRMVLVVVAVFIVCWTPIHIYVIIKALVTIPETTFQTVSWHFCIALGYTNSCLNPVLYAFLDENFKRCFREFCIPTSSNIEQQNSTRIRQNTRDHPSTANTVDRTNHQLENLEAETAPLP
T1 sequence (P41143 whole entry): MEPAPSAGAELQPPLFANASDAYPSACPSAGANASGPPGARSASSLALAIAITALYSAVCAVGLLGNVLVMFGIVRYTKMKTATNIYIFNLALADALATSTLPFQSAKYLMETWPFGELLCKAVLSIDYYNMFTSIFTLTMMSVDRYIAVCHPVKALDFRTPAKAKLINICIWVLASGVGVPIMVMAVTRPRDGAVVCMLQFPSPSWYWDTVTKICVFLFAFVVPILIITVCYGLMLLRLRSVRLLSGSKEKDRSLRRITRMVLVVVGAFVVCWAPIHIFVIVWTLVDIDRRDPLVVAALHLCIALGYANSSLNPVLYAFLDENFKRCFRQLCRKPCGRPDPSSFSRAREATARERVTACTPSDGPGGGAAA

**Q.** What does the source list for `Cc1cc(C(N)=O)cc(C)c1C[C@H](N)C(=O)NCC(=O)NCC(=O)N[C@H](CC(=O)N(C)CC(N)=O)Cc1ccccc1` [compound 74] (H-[Phe(2,6-Me2,4-CONH2)]GG[β3hF][Sar]-NH2)?
**A.** EC50 [1]: < 1 nM; EC50 [2]: < 1 nM

**Q.** With `Cc1cc(C(N)=O)cc(C)c1C[C@H](N)C(=O)NC(C)(C)C(=O)NCC(=O)N[C@H](CC(=O)N(C)CC(N)=O)Cc1ccccc1` [compound 75] as the molecule, how does the EC50 [1] read?
**A.** 10 to 50 nM

**Q.** What about the EC50 [2] of the same molecule?
**A.** < 1 nM

**Q.** Which results are given for `Cc1cc(C(N)=O)cc(C)c1C[C@H](N)C(=O)N[C@@H](C)C(=O)NCC(=O)N[C@H](CC(=O)N(C)CC(=O)O)Cc1ccccc1` [compound 80]?
**A.** EC50 [1]: 50 to 200 nM; EC50 [2]: 1 to 10 nM

**Q.** `C[C@@H](NC(=O)[C@@H](N)Cc1ccc(C(=O)O)cc1)C(=O)NCC(=O)N[C@H](CC(=O)N(C)CC(N)=O)Cc1ccccc1` [compound 89] was tested. Which EC50 [1] did it give?
**A.** 50 to 200 nM

**Q.** What about the EC50 [2] of the same molecule?
**A.** 50 to 200 nM

**Q.** How did the EC50 [1] turn out when `Cc1cc(O)cc(C)c1C[C@H](N)C(=O)NC(C)(C)C(=O)NCC(=O)N[C@H](CC(=O)N(C)CC(N)=O)Cc1ccccc1` [compound 90] was run?
**A.** 1 to 10 nM

**Q.** What about the EC50 [2] of the same molecule?
**A.** < 1 nM

**Q.** With `Cc1cc(C(N)=O)cc(C)c1C[C@H](N)C(=O)N[C@H](C)C(=O)NCC(=O)N[C@H](CC(=O)NCC(N)=O)Cc1ccccc1` [compound 94] as the molecule, how does the EC50 [1] read?
**A.** 1 to 10 nM

**Q.** What about the EC50 [2] of the same molecule?
**A.** < 1 nM

**Q.** `CC[C@H](C)[C@@H](C(=O)O)N(C)C(=O)C[C@H](Cc1ccccc1)NC(=O)CNC(=O)[C@@H](C)NC(=O)[C@@H](N)Cc1c(C)cc(C(N)=O)cc1C` [compound 95] was tested. Which EC50 [1] did it give?
**A.** 1 to 10 nM

**Q.** What about the EC50 [2] of the same molecule?
**A.** < 1 nM

**Q.** Which results are given for `CCC[C@@H](C(=O)O)N(C)C(=O)C[C@H](Cc1ccccc1)NC(=O)CNC(=O)[C@@H](C)NC(=O)[C@@H](N)Cc1c(C)cc(C(N)=O)cc1C` [compound 97]?
**A.** EC50 [1]: < 1 nM; EC50 [2]: < 1 nM

**Q.** What does the source list for `Cc1cc(C(N)=O)cc(C)c1C[C@H](N)C(=O)N[C@H](C)C(=O)NCC(=O)N[C@H](CC(=O)N(C)[C@@H](CC1CCCCC1)C(=O)O)Cc1ccccc1` [compound 98]?
**A.** EC50 [1]: 1 to 10 nM; EC50 [2]: 1 to 10 nM

**Q.** For `Cc1cc(C(N)=O)cc(C)c1C[C@H](N)C(=O)N[C@H](C)C(=O)NCC(=O)N[C@H](CC(=O)N(C)[C@@H](Cc1ccccc1)C(=O)O)Cc1ccccc1` [compound 100], which EC50 [1] is on record?
**A.** 1 to 10 nM

**Q.** What about the EC50 [2] of the same molecule?
**A.** 1 to 10 nM

**Q.** Which EC50 [1] does the source give for `Cc1cc(C(N)=O)cc(C)c1C[C@H](N)C(=O)N1Cc2ccccc2C[C@H]1C(=O)NCC(=O)N[C@H](CC(=O)N(C)CC(N)=O)Cc1ccccc1` [compound 103] here?
**A.** 50 to 200 nM

**Q.** And the EC50 [2]?
**A.** 50 to 200 nM

**Q.** With `Cc1cc(O)cc(C)c1C[C@H](N)C(=O)N1Cc2ccccc2C[C@H]1C(=O)NCC(=O)N[C@H](CC(=O)N(C)CC(N)=O)Cc1ccccc1` [compound 104] as the molecule, how does the EC50 [1] read?
**A.** 50 to 200 nM

**Q.** And the EC50 [2]?
**A.** 50 to 200 nM

**Q.** Which EC50 [1] does the source give for `Cc1cc(O)cc(C)c1C[C@H](N)C(=O)N[C@H](C)C(=O)NCC(=O)N[C@H](CC(=O)N(CC(N)=O)CC1CCCCC1)Cc1ccccc1` [compound 119] here?
**A.** 1 to 10 nM

**Q.** With `Cc1cc(O)cc(C)c1C[C@H](N)C(=O)N[C@H](C)C(=O)NCC(=O)N[C@H](CC(=O)N(CCC(=O)O)CC(N)=O)Cc1ccccc1` [compound 120] as the molecule, how does the EC50 [1] read?
**A.** < 1 nM

**Q.** Which EC50 [1] does the source give for `Cc1cc(O)cc(C)c1C[C@H](N)C(=O)N[C@H](C)C(=O)NCC(=O)N[C@H](CC(=O)N(CCc1ccccc1)CC(N)=O)Cc1ccccc1` [compound 121] here?
**A.** < 1 nM

**Q.** Which EC50 [1] does the source give for `Cc1cc(O)cc(C)c1C[C@H](N)C(=O)N[C@H](C)C(=O)NCC(=O)N[C@H](CC(=O)N(CC(N)=O)C1CCCCC1)Cc1ccccc1` [compound 123] here?
**A.** < 1 nM

**Q.** `CCCCCN(CC(N)=O)C(=O)C[C@H](Cc1ccccc1)NC(=O)CNC(=O)[C@@H](C)NC(=O)[C@@H](N)Cc1c(C)cc(O)cc1C` [compound 124] was tested. Which EC50 [1] did it give?
**A.** < 1 nM

**Q.** How did the EC50 [2] turn out when `CCCC[C@@H](C(=O)O)N(C)C(=O)[C@@H](Cc1ccccc1)N(C)C(=O)CNC(=O)[C@@H](C)NC(=O)[C@@H](N)Cc1c(C)cc(O)cc1C` [compound 154] was run?
**A.** < 1 nM

**Q.** For `CCCC[C@@H](C(=O)O)N(C)C(=O)C[C@H](Cc1ccccc1C)NC(=O)CNC(=O)[C@@H](C)NC(=O)[C@@H](N)Cc1c(C)cc(C(N)=O)cc1C` [compound 163], which EC50 [1] is on record?
**A.** 1 to 10 nM
